Patent US20120164731A1, “METHOD OF INDUCING DIFFERENTIATION FROM PLURIPOTENT STEM CELLS TO SKELETAL MUSCLE PROGENITOR CELLS” (KYOTO UNIVERSITY, priority 2009, published 2012)

What was measured:
iPS-DsRed = test: Induction of differentiation from primitive streak mesodermal cells to skeletal muscle progenitor cells (SM/C-2.6 FACS, Myf5 RT-PCR); assay type: cell-based, mouse
Method: (§1) Undifferentiated cells were detached from the dish as in the passage subculture, and twice washed with the differentiation induction basal medium. 10 ml of the culture medium for the first 3 days was added to a 10 cm cell culture dish coated with collagen type IV (Nitta Gelatin), and 500,000 undifferentiated iPS cells were seeded thereinto. The cells were cultured in an incubator adjusted to 37° C., 5% CO2, and 100% humidity for 3 days, after which the medium was replaced with the culture medium for the last 3 days. The cells were thus differentiation-induced for a total of 6 days, from which skeletal muscle progenitor cells were separated by the method of cell separation described below, and these were used in the subsequent experiments.
(§2) The mouse iPS cells induced by the above-described differentiation induction method were divided into a population of skeletal muscle progenitor cells and a population of other cells using FACS Aria (Becton Dickinson). The cells were stained using antibodies as described previously [Sakurai, H. et al., Stem Cells 24, 575-586 (2006)]. Three different rat monoclonal antibodies were used: APA5 (anti-PDGFRα), ECCD2 (anti-ECD) and SM/C-2.6. The former two were supplied by Dr. Nishikawa [Sakurai, H. et al., Stem Cells 24, 575-586 (2006)], and the remaining one by Dr. Yamamoto [Fukada, S. et al., Exp Cell Res., 296, 245-255 (2004)]. The APA5 and SM/C-2.6 were conjugated with biotin (PIERCE) and fluorescently labeled using streptavidin-APC as a secondary antibody. The ECCD2 was directly conjugating with Alexa488 (Molecular Probes) by a conventional method and fluorescently labeled. The fluorescently labeled cells were suspended in Hanks' balanced salt solution (Invitrogen) supplemented with 1% bovine serum albumin to obtain a cell density of 5,000,000 cells per mL, fluorescence was examined and analyzed using FACS Aria, and the PDGFRα-positive fraction was separated and recovered.
RNA was extracted from the recovered cells using Sepasol Reagent (Nacalai Tesque). cDNA was synthesized from the RNA using the SuperScriptll reverse transcription kit (Invitrogen). DNA was amplified by 25-35 cycles of PCR reaction using the ExTaq PCR reagent kit (Takara Bio) and the PTC200 thermal cycler (DNA engine), and analyzed by electrophoresis. The PCR primers shown below were used.
To find a method for effectively inducing the differentiation, the present inventors investigated the potential of the Wnt signal inducer LiCl, used alone or in combination with other growth factors, for inducing the differentiation of iPS cells into skeletal muscle progenitor cells. Selected growth factor candidates, i.e., Sonic Hedgehog (Shh) and IGF-1, were added to the differentiation medium for the last 3 days, and their influences on differentiation into skeletal muscle progenitor cells were examined (FIG. 3A). The iPS cell used was iPS-DsRed. The degree of differentiation into skeletal muscle progenitor cells was analyzed with the expression of SM/C-2.6 as an index. Also analyzed was the expression of Myf5, which is a skeletal muscle-specific transcription factor in the RNA as a whole. SM/C-2.6 is a marker capable of specifically staining satellite cells, which are skeletal muscle stem cells [Fukada, S. et al., Exp Cell Res., 296, 245-255 (2004)], and has been reported to enable the separation of skeletal muscle progenitor cells from a mouse ES cell induction system [Chang, H. et al., Generation of transplantable, functional satellite-like cells from mouse embryonic stem cells. Faseb J., 23: 1907-1919 (2009)].
First, the influence of the addition of Shh was determined. iPS-DsRed was induced to differentiate as illustrated in FIG. 3A. During the last 3 days, the cells were cultured in the presence of LiCl, alone or with the addition of Shh 20 ng/ml; the cells were induced to differentiate for a total of 6 days, stained with SM/C-2.6, and evaluated.

iPS cells = test: Timing of LiCl addition, appearance efficiency of PDGFRα-positive fraction by FACS; assay type: cell-based, mouse; details: continuous addition of LiCl from day 1 or day 2 from start of differentiation induction
Method: A method of increasing the appearance efficiency of skeletal muscle progenitor cells derived from iPS cells was studied. Specifically, LiCl, which was added on day 3 from the start of the differentiation induction in the previous Examples, was added from a different day. Samples with addition of LiCl from day 0, 1, 2, 3 or 4 from the start of the differentiation induction were analyzed for the appearance efficiency of the PDGFRα-positive fraction by FACS analysis. As a result, not less than 60% of the induction efficiency could be reproduced by continuous addition of LiCl from day 1 or day 2 from the start of the differentiation induction (FIG. 8B). This method could also be reproduced with other iPS cell clone (iPS-Ng-20D-17).

[1] = test system: mouse iPS cells (iPS-Nanog-20D-17); test: Induction of differentiation from iPS cells to primitive streak mesodermal cells (PDGFRα FACS, viable cell count); assay type: cell-based; details: for cell proliferation / survival: IGF-1 and/or HGF added or not
Method: Differentiation of iPS cells was induced using a serum-free basal medium for differentiation induction prepared by adding 0.2% bovine serum albumin (Sigma), 100 μM 2-mercaptoethanol (Invitrogen), 50 mU/L penicillin and 50 μg/L streptomycin to S-Clone SF-03 (Sanko Junyaku Co., Ltd.). Various growth factors were added to the medium, and their effects were examined. Eventually, the following growth factors were used at the concentrations indicated.
as §1, §2
With this in mind, a first experiment was performed to determine whether the addition of growth factors other than BMP4 supports the survival of iPS cells and promotes their differentiation into primitive streak mesodermal cells (hereinafter sometimes simply referred to as “mesoderm”). Activin A, IGF-1, and HGF were examined as growth factor candidates (FIG. 1A, italicized). With Activin A added to all culture conditions examined, 4 conditions were analyzed: “neither IGF-1 nor HGF was added”, “IGF-1 was added alone”, “HGF was added alone”, and “both were added”. The iPS cell used was iPS-Nanog-20D-17. […] However, the viable cell count was about 3 times higher in the IGF-1-alone addition group than in the IGF-1-HGF-concurrent addition group (FIG. 1B, right).
The influences of the concentrations of BMP4 and Activin A in the induction of differentiation from iPS cells to primitive streak mesodermal cells were examined. Specifically, of the addition conditions of Activin A 10 ng/ml, BMP4 10 ng/ml, and IGF-1 10 ng/ml determined in the previous section, the concentration of Activin A alone (FIG. 2A) or BMP4 alone (FIG. 2B) was changed, and the expression of PDGFRα was evaluated by FACS.

[2] = Shh experiment, LiCl alone or with Shh during last 3 days
[3] = induction of skeletal muscle progenitor cells, last 3 days
[4] = IGF-1 experiment, IGF-1-free or IGF-1 added, irrespective of concentration
[5] = iPS-Nanog-20D-17, Activin A added to all conditions

With sonic hedgehog [Shh] as the molecule, how does the “percentage of SM/C-2.6-positive cells” value (iPS-DsRed; Shh 20 ng/ml addition group, with LiCl, last 3 days, total 6 days) read?
Its value is 38.8%.

What about the “expression of Myf5 (RT-PCR)” value (iPS-DsRed; [2]) of the same molecule?
The value was “Myf5 was expressed”.

What about the optimal concentration (iPS-DsRed; [3]) of the same molecule?
Its optimal concentration is “about 20 ng/ml”.

For [Cl-].[Li+] [LiCl, lithium chloride, reference compound], which “percentage of SM/C-2.6-positive cells” value (iPS-DsRed; IGF-1-free group, last 3 days) is on record?
The value was 11.9%.

And the “expression of Myf5 (RT-PCR)” value (iPS-DsRed; [4])?
Its value is “no expression of Myf5 was observed”.

And the “expression of Myf5 (RT-PCR)” value (iPS-DsRed; [2])?
Its value is “not observed at all”.

What about the “percentage of SM/C-2.6-positive cells” value (iPS-DsRed; Shh-free group: LiCl alone during last 3 days, total 6 days) of the same molecule?
The value was 28.5%.

And the “induction efficiency (PDGFRα-positive fraction)” value (iPS cells)?
The value was “not less than 60%”.

For “HGF: growth factor candidate examined with Activin A and IGF-1”, which “cell proliferation / survival” value [1, 5] is on record?
Its value is “little cells surviving”.

Which “differentiation rate (mesoderm differentiation, expression of PDGFRα as an index)” value ([1]; iPS-Nanog-20D-17, Activin A added to all conditions, with BMP4, starting 3 days) does the source give for insulin-like growth factor-1 [IGF-1] here?
The value was 61.5%.

What about the “cell proliferation / survival” value [1, 5] of the same molecule?
The value was “Cell proliferation was observed”.

What about the “viable cell count, IGF-1-alone addition group versus IGF-1-HGF-concurrent addition group” value ([1]; iPS-Nanog-20D-17, with Activin A) of the same molecule?
The value was “about 3 times”.

And the “percentage of SM/C-2.6-positive cells” value (iPS-DsRed; IGF-1 5 ng/ml addition group, last 3 days)?
Its value is 16.8%.

And the “expression of Myf5 (RT-PCR)” value (iPS-DsRed; [4])?
Its value is “the expression of Myf5 was evident”.

And the effective concentration (iPS-DsRed; [3])?
Its effective concentration is at least 5 ng/mL.

B1: bone morphogenetic protein 4 (protein, UniProt P12644 293-408, looked up)
Bone morphogenetic protein 4: SPKHHSQRARKKNKNCRRHSLYVDFSDVGWNDWIVAPPGYQAFYCHGDCPFPLADHLNSTNHAIVQTLVNSVNSSIPKACCVPTELSAISMLYLDEYDKVVLKNYQEMVVEGCGCR
notes: growth factor (Peprotech) added to the differentiation medium for the first 3 days
Which results are given for B1?
viable cell count when BMP4 concentration decreased ([1]; Activin A 10 ng/ml, IGF-1 10 ng/ml): remained nearly constant; percentage of PDGFRα-positive cells ([1]; BMP4 10 ng/ml, Activin A 10 ng/ml, IGF-1 10 ng/ml): 44.7%; percentage of PDGFRα-positive cells ([1]; BMP4 at all concentrations of 5 ng/ml or less, Activin A 10 ng/ml, IGF-1 10 ng/ml): 25-28%

B2: Activin A (protein, UniProt P08476 311-426, looked up)
Inhibin beta A chain: GLECDGKVNICCKKQFFVSFKDIGWNDWIIAPSGYHANYCEGECPSHIAGTSGSSLSFHSTVINHYRMRGHSPFANLKSCCVPTKLRPMSMLYYDDGQNIIKKDIQNMIVEECGCS
modifications: Inhibin beta A chain
notes: as for B1
How did the “percentage of PDGFRα-positive cells induced” value ([1]; Activin A at 5 ng/ml or more, BMP4 10 ng/ml, IGF-1 10 ng/ml) turn out when B2 was run?
The value was “exceeded 40%”.

What about the “viable cell count for Activin A 0 ng/ml compared with 10 ng/ml” value ([1]; BMP4 10 ng/ml, IGF-1 10 ng/ml) of the same molecule?
The value was “about one-sixth level”.

What about the “concentrations at which more effective” value ([1]; based on PDGFRα-positive percentage and viable cell count) of the same molecule?
The value was 5 to 10 ng/mL.

What about the “cell proliferation / survival” value [1, 5] of the same molecule?
Its value is “some cells survived”.
